Source: patent publication US20250011368A1, “DLL3 TARGETING PEPTIDES AND CONSTRUCTS THEREOF” (MARIANA ONCOLOGY INC., priority 2023, published 2025)
Bridge positions count the residues as written; N and C are the ends. Square brackets hold non-standard residues; d marks the D form. Peptide text beside a SMILES is read from it. * marks the point of attachment. DOTA = O=C(O)CN1CCN(CC(=O)O)CCN(CC(=O)*)CCN(CC(=O)O)CC1; Phe(4-CF3) = N[C@@H](Cc1ccc(C(F)(F)F)cc1)C(=O)O; Trp(5-F) = N[C@@H](Cc1c[nH]c2ccc(F)cc12)C(=O)O; Phe(2-CF3) = N[C@@H](Cc1ccccc1C(F)(F)F)C(=O)O; Trp(7-aza) = N[C@@H](Cc1c[nH]c2ncccc12)C(=O)O; Pro(trans-4-F) = O=C(O)[C@@H]1C[C@@H](F)CN1; Phe(4-F) = N[C@@H](Cc1ccc(F)cc1)C(=O)O; Gly(4-THP) = N[C@H](C(=O)O)C1CCOCC1; Nva(3-Et) = CCC(CC)[C@H](N)C(=O)O; Cha = N[C@@H](CC1CCCCC1)C(=O)O; Cba = N[C@@H](CC1CCC1)C(=O)O; Chg = N[C@H](C(=O)O)C1CCCCC1; Tle = CC(C)(C)[C@H](N)C(=O)O; Nle = CCCC[C@H](N)C(=O)O; Aze = O=C(O)[C@@H]1CCN1

These compounds were tested against T1, human DLL3 (Homo sapiens, UniProt Q9NYJ7) (assay: Affinity determination by Surface Plasmon Resonance (SPR)). Settings: 25° C., biotinylated human DLL3 immobilized on streptavidin sensor chip, 1:1 binding model; read-out: SPR KD.
T1 sequence (Q9NYJ7 27-618): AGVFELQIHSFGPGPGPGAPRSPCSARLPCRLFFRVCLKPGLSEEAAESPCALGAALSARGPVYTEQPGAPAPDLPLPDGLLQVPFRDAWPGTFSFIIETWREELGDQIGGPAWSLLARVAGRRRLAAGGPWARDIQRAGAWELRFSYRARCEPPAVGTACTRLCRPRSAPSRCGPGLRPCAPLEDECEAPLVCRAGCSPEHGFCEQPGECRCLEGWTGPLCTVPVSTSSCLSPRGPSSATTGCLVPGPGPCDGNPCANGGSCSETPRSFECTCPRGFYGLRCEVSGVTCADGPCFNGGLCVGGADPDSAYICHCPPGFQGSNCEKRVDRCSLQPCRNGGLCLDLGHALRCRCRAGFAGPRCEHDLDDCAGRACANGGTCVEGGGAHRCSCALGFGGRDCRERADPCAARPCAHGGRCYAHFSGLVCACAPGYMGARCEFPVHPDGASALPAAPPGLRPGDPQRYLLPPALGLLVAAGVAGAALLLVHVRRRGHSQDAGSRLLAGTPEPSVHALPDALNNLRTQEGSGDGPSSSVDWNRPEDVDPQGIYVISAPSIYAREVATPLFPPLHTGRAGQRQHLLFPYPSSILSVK
Assay type: binding
Method in brief: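 Kinetic and affinity constants were derived by fitting sensorgrams to a 1:1 binding model. Graded compound concentrations flowed at 100 μL/minute in 20 mM phosphate running buffer with 2% DMSO over streptavidin-immobilized biotinylated human DLL3, reference-subtracted.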
A Kd of 1 to 10 nM was found for `CC(=O)N[C@@H](Cc1c[nH]c2ccc(F)cc12)C(=O)N[C@H](C(=O)N[C@@H](CC1CCCCC1)C(=O)N[C@H]1CSSC[C@@H](C(=O)N[C@@H](Cc2c[nH]c3ncccc23)C(=O)N2C[C@H](F)C[C@H]2C(=O)N[C@H](CCCCNC(=O)CN2CCN(CC(=O)O)CCN(CC(=O)O)CCN(CC(=O)O)CC2)C(N)=O)NC(=O)[C@H](CC(=O)O)NC(=O)[C@H](Cc2cnc[nH]2)NC(=O)[C@H](Cc2ccc(F)cc2)NC(=O)[C@H](CC(N)=O)NC(=O)[C@H](CC(N)=O)NC1=O)[C@@H](C)O` [compound 133, Ac-(5Fluoro-W)-T-(CHA)-C(3)-N-N-(4Fluoro-F)-H-D-C(3)-(7Aza-W)-(trans4Fluoro-P)-[D-Lys(DOTA)]-NH2] (Ac-[Trp(5-F)]T[Cha]CNN[Phe(4-F)]HDC[Trp(7-aza)][Pro(trans-4-F)][dK](DOTA)-NH2; disulfide 4-10) in this work. A Kd of 1 to 10 nM was found for `CC(=O)N[C@@H](Cc1c[nH]c2ccc(F)cc12)C(=O)N[C@H](C(=O)N[C@@H](CC1CCC1)C(=O)N[C@H]1CSSC[C@@H](C(=O)N[C@@H](Cc2c[nH]c3ncccc23)C(=O)N2C[C@H](F)C[C@H]2C(=O)N[C@H](CCCCNC(=O)CN2CCN(CC(=O)O)CCN(CC(=O)O)CCN(CC(=O)O)CC2)C(N)=O)NC(=O)[C@H](CC(=O)O)NC(=O)[C@H](Cc2cnc[nH]2)NC(=O)[C@H](Cc2ccc(F)cc2)NC(=O)[C@H](CC(N)=O)NC(=O)[C@H](CC(N)=O)NC1=O)[C@@H](C)O` [compound 134, Ac-(5Fluoro-W)-T-(CBA)-C(3)-N-N-(4Fluoro-F)-H-D-C(3)-(7Aza-W)-(trans4Fluoro-P)-[D-Lys(DOTA)]-NH2] (Ac-[Trp(5-F)]T[Cba]CNN[Phe(4-F)]HDC[Trp(7-aza)][Pro(trans-4-F)][dK](DOTA)-NH2; disulfide 4-10) in this work. A Kd of 1 to 10 nM was found for `CC(=O)N[C@@H](Cc1c[nH]c2ccc(F)cc12)C(=O)N[C@H](C(=O)N[C@H](C(=O)N[C@H]1CSSC[C@@H](C(=O)N[C@@H](Cc2c[nH]c3ncccc23)C(=O)N2C[C@H](F)C[C@H]2C(=O)N[C@H](CCCCNC(=O)CN2CCN(CC(=O)O)CCN(CC(=O)O)CCN(CC(=O)O)CC2)C(N)=O)NC(=O)[C@H](CC(=O)O)NC(=O)[C@H](Cc2cnc[nH]2)NC(=O)[C@H](Cc2ccc(F)cc2)NC(=O)[C@H](CC(N)=O)NC(=O)[C@H](CC(N)=O)NC1=O)C1CCCCC1)[C@@H](C)O` [compound 135, Ac-(5Fluoro-W)-T-(Chg)-C(3)-N-N-(4Fluoro-F)-H-D-C(3)-(7Aza-W)-(trans4Fluoro-P)-[D-Lys(DOTA)]-NH2] (Ac-[Trp(5-F)]T[Chg]CNN[Phe(4-F)]HDC[Trp(7-aza)][Pro(trans-4-F)][dK](DOTA)-NH2; disulfide 4-10) in this work. A Kd of 1 to 10 nM was found for `CC(=O)N[C@@H](Cc1c[nH]c2ccc(F)cc12)C(=O)N[C@H](C(=O)N[C@@H](Cc1ccccc1C(F)(F)F)C(=O)N[C@H]1CSSC[C@@H](C(=O)N[C@@H](Cc2c[nH]c3ncccc23)C(=O)N2C[C@H](F)C[C@H]2C(=O)N[C@H](CCCCNC(=O)CN2CCN(CC(=O)O)CCN(CC(=O)O)CCN(CC(=O)O)CC2)C(N)=O)NC(=O)[C@H](CC(=O)O)NC(=O)[C@H](Cc2cnc[nH]2)NC(=O)[C@H](Cc2ccc(F)cc2)NC(=O)[C@H](CC(N)=O)NC(=O)[C@H](CC(N)=O)NC1=O)[C@@H](C)O` [compound 136, Ac-(5Fluoro-W)-T-(2CF3-F)-C(3)-N-N-(4Fluoro-F)-H-D-C(3)-(7Aza-W)-(trans4Fluoro-P)-[D-Lys(DOTA)]-NH2] (Ac-[Trp(5-F)]T[Phe(2-CF3)]CNN[Phe(4-F)]HDC[Trp(7-aza)][Pro(trans-4-F)][dK](DOTA)-NH2; disulfide 4-10) in this work. A Kd of 1 to 10 nM was found for `CC(=O)N[C@@H](Cc1c[nH]c2ccc(F)cc12)C(=O)N[C@H](C(=O)N[C@H](C(=O)N[C@H]1CSSC[C@@H](C(=O)N[C@@H](Cc2c[nH]c3ncccc23)C(=O)N2CC[C@H]2C(=O)N[C@H](CCCCNC(=O)CN2CCN(CC(=O)O)CCN(CC(=O)O)CCN(CC(=O)O)CC2)C(N)=O)NC(=O)[C@H](CC(=O)O)NC(=O)[C@H](Cc2cnc[nH]2)NC(=O)[C@H](Cc2ccc(C(F)(F)F)cc2)NC(=O)[C@H](CC(N)=O)NC(=O)[C@H](CC(N)=O)NC1=O)C(C)(C)C)[C@@H](C)O` [compound 137, Ac-(5Fluoro-W)-T-(Tbg)-C(3)-N-N-(4CF3-F)-H-D-C(3)-(7Aza-W)-(Aze)-[D-Lys(DOTA)]-NH2] (Ac-[Trp(5-F)]T[Tle]CNN[Phe(4-CF3)]HDC[Trp(7-aza)][Aze][dK](DOTA)-NH2; disulfide 4-10) in this work. A Kd of 10 to 100 nM was found for `CCC(CC)[C@H](NC(=O)[C@@H](NC(=O)[C@H](Cc1c[nH]c2ccc(F)cc12)NC(C)=O)[C@@H](C)O)C(=O)N[C@H]1CSSC[C@@H](C(=O)N[C@@H](Cc2c[nH]c3ncccc23)C(=O)N2CC[C@H]2C(=O)N[C@H](CCCCNC(=O)CN2CCN(CC(=O)O)CCN(CC(=O)O)CCN(CC(=O)O)CC2)C(N)=O)NC(=O)[C@H](CC(=O)O)NC(=O)[C@H](Cc2c[nH]cn2)NC(=O)[C@H](Cc2ccc(C(F)(F)F)cc2)NC(=O)[C@H](CC(N)=O)NC(=O)[C@H](CC(N)=O)NC1=O` [compound 138, Ac-(5Fluoro-W)-T-(Env)-C(3)-N-N-(4CF3-F)-H-D-C(3)-(7Aza-W)-(Aze)-[D-Lys(DOTA)]-NH2] (Ac-[Trp(5-F)]T[Nva(3-Et)]CNN[Phe(4-CF3)]HDC[Trp(7-aza)][Aze][dK](DOTA)-NH2; disulfide 4-10) in this work. A Kd of 1 to 10 nM was found for `CC(=O)N[C@@H](Cc1c[nH]c2ccc(F)cc12)C(=O)N[C@H](C(=O)N[C@H](C(=O)N[C@H]1CSSC[C@@H](C(=O)N[C@@H](Cc2c[nH]c3ncccc23)C(=O)N2CC[C@H]2C(=O)N[C@H](CCCCNC(=O)CN2CCN(CC(=O)O)CCN(CC(=O)O)CCN(CC(=O)O)CC2)C(N)=O)NC(=O)[C@H](CC(=O)O)NC(=O)[C@H](Cc2cnc[nH]2)NC(=O)[C@H](Cc2ccc(C(F)(F)F)cc2)NC(=O)[C@H](CC(N)=O)NC(=O)[C@H](CC(N)=O)NC1=O)C1CCOCC1)[C@@H](C)O` [compound 139, Ac-(5Fluoro-W)-T-(THPG)-C(3)-N-N-(4CF3-F)-H-D-C(3)-(7Aza-W)-(Aze)-[D-Lys(DOTA)]-NH2] (Ac-[Trp(5-F)]T[Gly(4-THP)]CNN[Phe(4-CF3)]HDC[Trp(7-aza)][Aze][dK](DOTA)-NH2; disulfide 4-10) in this work. A Kd of 10 to 100 nM was found for `CCCC[C@H](NC(=O)[C@@H](NC(=O)[C@H](Cc1c[nH]c2ccc(F)cc12)NC(C)=O)[C@@H](C)O)C(=O)N[C@H]1CSSC[C@@H](C(=O)N[C@@H](Cc2c[nH]c3ncccc23)C(=O)N2CC[C@H]2C(=O)N[C@H](CCCCNC(=O)CN2CCN(CC(=O)O)CCN(CC(=O)O)CCN(CC(=O)O)CC2)C(N)=O)NC(=O)[C@H](CC(=O)O)NC(=O)[C@H](Cc2cnc[nH]2)NC(=O)[C@H](Cc2ccc(C(F)(F)F)cc2)NC(=O)[C@H](CC(N)=O)NC(=O)[C@H](CC(N)=O)NC1=O` [compound 140, Ac-(5Fluoro-W)-T-(Nle)-C(3)-N-N-(4CF3-F)-H-D-C(3)-(7Aza-W)-(Aze)-[D-Lys(DOTA)]-NH2] (Ac-[Trp(5-F)]T[Nle]CNN[Phe(4-CF3)]HDC[Trp(7-aza)][Aze][dK](DOTA)-NH2; disulfide 4-10) in this work. A Kd of 1 to 10 nM was found for `CC(=O)N[C@@H](Cc1c[nH]c2ccc(F)cc12)C(=O)N[C@H](C(=O)N[C@@H](CC1CCCCC1)C(=O)N[C@H]1CSSC[C@@H](C(=O)N[C@@H](Cc2c[nH]c3ncccc23)C(=O)N2CC[C@H]2C(=O)N[C@H](CCCCNC(=O)CN2CCN(CC(=O)O)CCN(CC(=O)O)CCN(CC(=O)O)CC2)C(N)=O)NC(=O)[C@H](CC(=O)O)NC(=O)[C@H](Cc2cnc[nH]2)NC(=O)[C@H](Cc2ccc(C(F)(F)F)cc2)NC(=O)[C@H](CC(N)=O)NC(=O)[C@H](CC(N)=O)NC1=O)[C@@H](C)O` [compound 141, Ac-(5Fluoro-W)-T-(CHA)-C(3)-N-N-(4CF3-F)-H-D-C(3)-(7Aza-W)-(Aze)-[D-Lys(DOTA)]-NH2] (Ac-[Trp(5-F)]T[Cha]CNN[Phe(4-CF3)]HDC[Trp(7-aza)][Aze][dK](DOTA)-NH2; disulfide 4-10) in this work. A Kd of 1 to 10 nM was found for `CC(=O)N[C@@H](Cc1c[nH]c2ccc(F)cc12)C(=O)N[C@H](C(=O)N[C@@H](CC1CCC1)C(=O)N[C@H]1CSSC[C@@H](C(=O)N[C@@H](Cc2c[nH]c3ncccc23)C(=O)N2CC[C@H]2C(=O)N[C@H](CCCCNC(=O)CN2CCN(CC(=O)O)CCN(CC(=O)O)CCN(CC(=O)O)CC2)C(N)=O)NC(=O)[C@H](CC(=O)O)NC(=O)[C@H](Cc2cnc[nH]2)NC(=O)[C@H](Cc2ccc(C(F)(F)F)cc2)NC(=O)[C@H](CC(N)=O)NC(=O)[C@H](CC(N)=O)NC1=O)[C@@H](C)O` [compound 142, Ac-(5Fluoro-W)-T-(CBA)-C(3)-N-N-(4CF3-F)-H-D-C(3)-(7Aza-W)-(Aze)-[D-Lys(DOTA)]-NH2] (Ac-[Trp(5-F)]T[Cba]CNN[Phe(4-CF3)]HDC[Trp(7-aza)][Aze][dK](DOTA)-NH2; disulfide 4-10) in this work.
